Assays:
[1] = biological target: T1, rat mAChR M4 (Rattus norvegicus, UniProt P08485); experiment: mAChR M4 cell-based functional assay (calcium mobilization, EC80 acetylcholine), rat M4; settings: Table 10; for IC50: M4/Gqi5/CHO-K1 cells, decrease of EC80 acetylcholine response
T1 construct: expressed in transfected cells; host or cells: CHO-K1 (ATCC), stably co-expressing chimeric G protein Gqi5
T1 sequence (P08485 1-478): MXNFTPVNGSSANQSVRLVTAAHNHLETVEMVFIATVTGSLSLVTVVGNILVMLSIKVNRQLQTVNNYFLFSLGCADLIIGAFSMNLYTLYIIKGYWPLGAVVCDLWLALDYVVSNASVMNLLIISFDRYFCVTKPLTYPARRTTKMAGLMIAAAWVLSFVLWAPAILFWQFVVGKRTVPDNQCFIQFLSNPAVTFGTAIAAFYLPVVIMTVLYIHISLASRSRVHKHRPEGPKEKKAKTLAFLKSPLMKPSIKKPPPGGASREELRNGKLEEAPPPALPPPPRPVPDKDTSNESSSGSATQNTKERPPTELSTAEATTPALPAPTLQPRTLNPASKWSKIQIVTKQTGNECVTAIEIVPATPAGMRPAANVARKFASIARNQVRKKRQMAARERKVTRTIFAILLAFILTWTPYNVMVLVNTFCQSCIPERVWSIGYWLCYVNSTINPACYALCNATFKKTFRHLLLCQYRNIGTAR
Procedure: Human or rat M4 cDNA, along with the chimeric G protein Gqi5, were transfected into Chinese hamster ovary (CHO-K1) cells purchased from the American Type Culture Collection using Lipofectamine2000. M4/Gqi5/CHO cells were grown in Ham's F-12 medium containing 10% heat-inactivated fetal bovine serum (FBS), 20 mM HEPES, 500 μg/mL G418 sulfate, and 200 μg/mL Hygromycin B.
For high throughput measurement of agonist-evoked increases in intracellular calcium, CHO-K1 cells stably expressing muscarinic receptors were plated in growth medium lacking G418 and hygromycin at 15,000 cells/20 μL/well in Greiner 384-well black-walled, tissue culture (TC)-treated, clear-bottom plates (VWR). Cells were incubated overnight at 37° C. and 5% CO2. The next day, cells were washed using an ELX 405 (BioTek) with assay buffer; the final volume was then aspirated to 20 μL. Next, 20 μL of a 2.3 μM stock of Fluo-4/acetoxymethyl ester (Invitrogen, Carlsbad, CA), prepared as a 2.3 mM stock in DMSO and mixed in a 1:1 ratio with 10% (w/v) Pluronic F-127 and diluted in assay buffer, was added to the wells and the cell plates were incubated for 50 min at 37° C. and 5% CO2. Dye was removed by washing with the ELX 405 and the final volume was aspirated to 20 μL. Compound master plates were formatted in a 10 point concentration-response curve (CRC) format (1:3 dilutions) in 100% DMSO with a starting concentration of 10 or 1 mM using a BRAVO liquid handler (Agilent). Test compound CRCs were then transferred to daughter plates (240 nL) using the Echo acoustic plate reformatter (Labcyte, Sunnyvale, CA) and then diluted into assay buffer (40 μL) to a 2× stock using a Thermo Fisher Combi (Thermo Fisher Scientific, Waltham, MA).
Calcium flux was measured using the Functional Drug Screening System (FDSS) 6000 or 7000 (Hamamatsu Corporation, Tokyo, Japan) as an increase in the fluorescent static ratio. Compounds were applied to cells (20 μL, 2×) using the automated system of the FDSS at 2 seconds into the protocol and the data were collected at 1 Hz. At 143 s, 10 μL of an EC20 concentration of the muscarinic receptor agonist acetylcholine was added (5×), followed by the addition of 12 μL of an EC80 concentration of acetylcholine at the 268 s time point (5×). Agonist activity was analyzed as a concentration-dependent increase in calcium mobilization upon compound addition. Positive allosteric modulator activity was analyzed as a concentration-dependent increase in the EC20 acetylcholine response. Antagonist activity was analyzed as a concentration-dependent decrease in the EC80 acetylcholine response; for the purposes of the tables herein, an IC50 (inhibitory concentration 50) was calculated as a concentration-dependent decrease of the response elicited by an EC80 concentration of acetylcholine. Concentration-response curves were generated using a four-parameter logistical equation in XLFit curve fitting software (IDBS, Bridgewater, NJ) for Excel (Microsoft, Redmond, WA) or Prism (GraphPad Software, Inc., San Diego, CA) or the Dotmatics software platform (Dotmatics, Bishop's Stortford, UK).

[2] = biological target: T2, human mAChR M4 (Homo sapiens, UniProt P08173); experiment: mAChR M4 cell-based functional assay (calcium mobilization, EC80 acetylcholine), human M4; settings: Table 10; for IC50: M4/Gqi5/CHO-K1 cells, decrease of EC80 acetylcholine response
T2 construct: expressed in transfected cells; host or cells: CHO-K1 (ATCC), stably co-expressing chimeric G protein Gqi5
T2 sequence (P08173 1-479): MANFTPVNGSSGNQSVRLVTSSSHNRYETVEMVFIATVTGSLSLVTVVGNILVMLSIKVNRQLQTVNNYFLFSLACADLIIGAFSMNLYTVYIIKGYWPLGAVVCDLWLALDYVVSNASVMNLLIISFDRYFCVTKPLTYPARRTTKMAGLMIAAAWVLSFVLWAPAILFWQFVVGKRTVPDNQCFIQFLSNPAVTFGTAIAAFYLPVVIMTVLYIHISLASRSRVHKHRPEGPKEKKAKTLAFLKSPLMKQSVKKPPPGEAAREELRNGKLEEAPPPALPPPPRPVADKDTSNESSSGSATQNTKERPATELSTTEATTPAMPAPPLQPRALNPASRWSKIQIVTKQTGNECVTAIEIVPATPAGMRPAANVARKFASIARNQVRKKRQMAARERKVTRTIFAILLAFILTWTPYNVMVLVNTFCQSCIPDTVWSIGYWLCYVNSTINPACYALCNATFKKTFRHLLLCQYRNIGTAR
In short: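 CHO-K1 cells stably expressing human M4 with chimeric Gqi5; intracellular calcium rise read on FDSS as fluorescence static ratio at 1 Hz. Compounds in 10-point 1:3 dilution series; IC50 taken as concentration-dependent decrease of the EC80 acetylcholine response, four-parameter logistic fit.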

[3] = test system: haloperidol-induced catalepsy in mice; experiment: catalepsy induced by the DA receptor antagonist haloperidol; type: in vivo
[4] = test system: M4 knockout mice; settings: but not the other four mAChR subtypes; cited from earlier work

| SMILES | Rat M4 Emin [1] | IC50 [1] | Human M4 Emin [2] | IC50 [2] | reduction of haloperidol-induced catalepsy ([3]; M4KO mice) | reversal of haloperidol-induced catalepsy ([3]; WT mice) | locomotor-activating effects [4] |
| --- | --- | --- | --- | --- | --- | --- | --- |
| CC(C)(C)CCN1C[C@H]2C[C@H](Oc3ccc(Cl)nn3)C[C@H]2C1 [Compound 128, (3aR,5s,6aS)-5-(6-chloropyridazin-3-yl)oxy-2-(3,3-dimethylbutyl)-3,3a,4,5,6,6a-hexahydro-1H-cyclopenta[c]pyrrole] | 17% | 6330 nM | 5% | 1090 nM | – | – | – |
| CC(=O)Nc1ccc(-c2ccc(O[C@H]3C[C@@H]4CN(CCC(C)(C)C)C[C@@H]4C3)nn2)cc1 [Compound 129, N-[4-[6-[[(3aR,5s,6aS)-2-(3,3-dimethylbutyl)-3,3a,4,5,6,6a-hexahydro-1H-cyclopenta[c]pyrrol-5-yl]oxy]pyridazin-3-yl]phenyl]acetamide] | 4% | 195 nM | 4% | 91.2 nM | – | – | – |
| CC(=O)Nc1ccc(-c2ccc(O[C@H]3C[C@@H]4CN(CC5CCOCC5)C[C@@H]4C3)nn2)cc1 [Compound 132, N-[4-[6-[[(3aR,5s,6aS)-2-(tetrahydropyran-4-ylmethyl)-3,3a,4,5,6,6a-hexahydro-1H-cyclopenta[c]pyrrol-5-yl]oxy]pyridazin-3-yl]phenyl]acetamide] | 6% | 995 nM | 6% | 648 nM | – | – | – |
| CC(C)(C)CCN1C[C@H]2C[C@H](Oc3ccc(-c4cc(F)ccc4Cl)nn3)C[C@H]2C1 [Compound 137, (3aR,5s,6aS)-5-[6-(2-chloro-5-fluoro-phenyl)pyridazin-3-yl]oxy-2-(3,3-dimethylbutyl)-3,3a,4,5,6,6a-hexahydro-1H-cyclopenta[c]pyrrole] | 3% | 313 nM | 3% | 19.8 nM | – | – | – |
| CC(C)(C)CCN1C[C@H]2C[C@H](Oc3ccc(-c4ccc5c(c4)OCO5)nn3)C[C@H]2C1 [Compound 138, (3aR,5s,6aS)-5-[6-(1,3-benzodioxol-5-yl)pyridazin-3-yl]oxy-2-(3,3-dimethylbutyl)-3,3a,4,5,6,6a-hexahydro-1H-cyclopenta[c]pyrrole] | 3% | 382 nM | 3% | 59.1 nM | – | – | – |
| CC(=O)Nc1ccc(-c2ccc(N[C@H]3C[C@@H]4CN(CCC(C)(C)C)C[C@@H]4C3)nn2)cc1 [Compound 140, N-[4-[6-[[(3aR,5s,6aS)-2-(3,3-dimethylbutyl)-3,3a,4,5,6,6a-hexahydro-1H-cyclopenta[c]pyrrol-5-yl]amino]pyridazin-3-yl]phenyl]acetamide] | 3% | 17.1 nM | 5% | 1.08 nM | – | – | – |
| CC(C)(C)CCN1C[C@H]2C[C@H](Nc3ccc(-c4ccc(F)cc4Cl)nn3)C[C@H]2C1 [Compound 141, (3aR,5s,6aS)-N-[6-(2-chloro-4-fluoro-phenyl)pyridazin-3-yl]-2-(3,3-dimethylbutyl)-3,3a,4,5,6,6a-hexahydro-1H-cyclopenta[c]pyrrol-5-amine] | 3% | 138 nM | 4% | 14.8 nM | – | – | – |
| COc1ccc(-c2ccc(N[C@H]3C[C@@H]4CN(CC5CCOCC5)C[C@@H]4C3)nn2)cc1F [Compound 222, (3aR,5s,6aS)-N-[6-(3-fluoro-4-methoxy-phenyl)pyridazin-3-yl]-2-(tetrahydropyran-4-ylmethyl)-3,3a,4,5,6,6a-hexahydro-1H-cyclopenta[c]pyrrol-5-amine] | 6% | 63.6 nM | 3% | 5 nM | – | – | – |
| FC(F)Oc1ccc(-c2ccc(N[C@H]3C[C@@H]4CN(CC5CCOCC5)C[C@@H]4C3)nn2)cc1 [Compound 223, (3aR,5s,6aS)-N-[6-[4-(difluoromethoxy)phenyl]pyridazin-3-yl]-2-(tetrahydropyran-4-ylmethyl)-3,3a,4,5,6,6a-hexahydro-1H-cyclopenta[c]pyrrol-5-amine] | 6% | 121 nM | 3% | 6.39 nM | – | – | – |
| c1csc(-c2ccc(N[C@H]3C[C@@H]4CN(CC5CCOCC5)C[C@@H]4C3)nn2)c1 [Compound 226, (3aR,5s,6aS)-2-(tetrahydropyran-4-ylmethyl)-N-[6-(2-thienyl)pyridazin-3-yl]-3,3a,4,5,6,6a-hexahydro-1H-cyclopenta[c]pyrrol-5-amine] | 14% | 605 nM | 6% | 22 nM | – | – | – |
| c1cc(-c2ccc(N[C@H]3C[C@@H]4CN(CC5CCOCC5)C[C@@H]4C3)nn2)cs1 [Compound 227, (3aR,5s,6aS)-2-(tetrahydropyran-4-ylmethyl)-N-[6-(3-thienyl)pyridazin-3-yl]-3,3a,4,5,6,6a-hexahydro-1H-cyclopenta[c]pyrrol-5-amine] | 13% | 2230 nM | 5% | 8.4 nM | – | – | – |
| c1cc(C2CC2)ncc1-c1ccc(N[C@H]2C[C@@H]3CN(CC4CCOCC4)C[C@@H]3C2)nn1 [Compound 232, (3aR,5s,6aS)-N-[6-(6-cyclopropyl-3-pyridyl)pyridazin-3-yl]-2-(tetrahydropyran-4-ylmethyl)-3,3a,4,5,6,6a-hexahydro-1H-cyclopenta[c]pyrrol-5-amine] | 8% | 490 nM | 4% | 5.32 nM | – | – | – |
| CN1[C@@H]2C[C@@H](OC(=O)[C@H](CO)c3ccccc3)C[C@H]1[C@@H]1O[C@@H]12 [scopolamine] | – | – | – | – | ineffective in reducing catalepsy | completely reversed | dramatically reduced |
